{
  "source": "patent US10028900B2",
  "about": "“Photostable sunscreen composition for topical application” (KANCOR INGREDIENTS LTD, priority 2014, dated 2018)",
  "origin": "cited, not measured here",
  "details": "oil / water",
  "data": [
    {"smiles": "CCCCC(CC)COC(=O)/C=C/c1ccc(OC)cc1", "note": "(centres unmarked) [Octyl-methoxy cinnamate, 2-ethylhexyl (2E)-3-(4-methoxyphenyl) prop-2-enoate]", "values": [
      {"measurement": "Solubility (in words)", "value": "oil soluble and water insoluble"}
    ]},
    {"smiles": "COc1ccc(C(=O)CC(=O)c2ccc(C(C)(C)C)cc2)cc1", "note": "[Avobenzone, 1-(4-methoxyphenyl)-3-(4-tert-butylphenyl)propane-1,3-dione]", "values": [
      {"measurement": "Solubility (in words)", "value": "oil soluble and water insoluble"}
    ]}
  ]
}
